Laboratory results published in ChEMBL document CHEMBL1157990, “Iridal-type triterpenoids with ichthyotoxic activity from belamcanda chinensis” (J Nat Prod, 1999).
≈ marks a conversion by molar mass, not a printed value.

assay: Ichthyotoxicity against Oryzias latipes after 24 hrs; type: organism-based; conditions: in vivo, read-out: TLm

Point of comparison: `CC(C)=CCC/C(C)=C/C=C/C(C)=C/[C@H]1C[C@@]2(C(O)O1)[C@H](CCCO)/C(=C(/C)C=O)CC[C@]2(C)O` (some centres not stated) [BELACHINAL], LC50 at 24 h 2.8 µg/mL (≈ 5.75 µM). Against it:
- CCCCCCCCCC(=O)OCCC[C@@H]1/C(=C(/C)C=O)CC[C@](C)(O)[C@@]1(C)CC/C=C(\C)[C@@H](C/C=C(\C)CCC=C(C)C)OC(C)=O — higher, > 30 µg/mL
- CC(C)=CCC/C(C)=C/C=C/C(C)=C/[C@@H]1C[C@@]2(C(O)O1)[C@H](CCCO)/C(=C(/C)C=O)CC[C@]2(C)O (some centres not stated) — 2-fold higher, 5.5 µg/mL (≈ 11.3 µM)
- CC(C)=CCC/C(C)=C/C[C@@H](O)/C(C)=C/CC[C@@]1(C)[C@H](CCCO)/C(=C(/C)C=O)CC[C@]1(C)O [ISOIRIDOGERMANAL] — 3.3-fold higher, 9.3 µg/mL (≈ 19.6 µM)
- CC(=O)OCCC[C@@H]1/C(=C(/C)C=O)CC[C@](C)(O)[C@@]1(C)CC/C=C(\C)[C@@H](C/C=C(\C)CCC=C(C)C)OC(C)=O — higher, > 10 µg/mL
- CC(C)=CCC/C(C)=C/C=C/C(C)=C/[C@@H]1C[C@@]23[C@H](OCCC[C@@H]2/C(=C(/C)C=O)CC[C@]3(C)O)O1 [ANHYDROBELACHINAL] — higher, > 10 µg/mL
- C=C(/C=C/C=C(\C)CCC=C(C)C)[C@@H]1CC[C@]2([C@H](CCCO)/C(=C(/C)C=O)CC[C@]2(C)O)[C@@H]1O — 1.7-fold lower, 1.6 µg/mL (≈ 3.4 µM)
- CC(=O)OCCC[C@@H]1/C(=C(/C)C=O)CC[C@](C)(O)[C@@]1(C)CC/C=C(\C)[C@H](O)C/C=C(\C)CCC=C(C)C — 3.5-fold lower, 0.8 µg/mL (≈ 1.55 µM)
- C=C1CC/C=C(\C)C(=O)[C@H](O)[C@@H]2[C@@H]1CC2(C)C [BUDDLEDIN B] — 2.3-fold lower, 1.2 µg/mL (≈ 5.12 µM)
- CCCCCCCCCCCCCC(=O)OCCC[C@@H]1/C(=C(/C)C=O)CC[C@](C)(O)[C@@]1(C)CC/C=C(\C)[C@@H](C/C=C(\C)CCC=C(C)C)OC(C)=O — higher, > 10 µg/mL
- CC(C)=CCC/C(C)=C/C=C/C(C)=C/[C@H]1C[C@@]23[C@H](OCCC[C@@H]2/C(=C(/C)C=O)CC[C@]3(C)O)O1 [EPIANHYDROBELACHINAL] — higher, > 10 µg/mL
- CCCCCCCCCCCCCC(=O)OCCC[C@@H]1/C(=C(/C)C=O)CC[C@](C)(O)[C@@]1(C)CC/C=C(\C)[C@H](O)C/C=C(\C)CCC=C(C)C [IRISTECTORENE B] — within 1.5-fold, 3.5 µg/mL (≈ 5.11 µM)
